The structures appear in SMILES notation.

mGlyT-1b, sequence (P28571 other isoform, or with tags, fused parts or gaps isoform P28571-2): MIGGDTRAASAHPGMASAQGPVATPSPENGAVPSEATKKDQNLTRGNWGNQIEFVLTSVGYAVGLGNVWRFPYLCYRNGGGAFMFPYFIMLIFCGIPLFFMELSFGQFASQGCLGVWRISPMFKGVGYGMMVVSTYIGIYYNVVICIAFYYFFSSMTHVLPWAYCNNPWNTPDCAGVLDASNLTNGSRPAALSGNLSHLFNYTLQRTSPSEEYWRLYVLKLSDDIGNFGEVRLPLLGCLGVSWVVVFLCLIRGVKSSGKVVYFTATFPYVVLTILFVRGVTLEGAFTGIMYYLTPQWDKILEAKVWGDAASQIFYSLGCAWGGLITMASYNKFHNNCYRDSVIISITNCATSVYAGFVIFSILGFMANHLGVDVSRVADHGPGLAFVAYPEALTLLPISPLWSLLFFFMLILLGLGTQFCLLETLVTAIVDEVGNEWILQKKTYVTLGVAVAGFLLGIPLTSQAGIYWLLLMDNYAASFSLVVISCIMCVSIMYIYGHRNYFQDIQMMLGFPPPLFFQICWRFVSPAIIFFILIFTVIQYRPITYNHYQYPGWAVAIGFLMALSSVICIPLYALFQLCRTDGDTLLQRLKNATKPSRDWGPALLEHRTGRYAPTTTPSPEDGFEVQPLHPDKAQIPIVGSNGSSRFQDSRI

The target of the assay is mGlyT-1b (Mus musculus (Mouse), UniProt P28571). Briefly: Glycine Uptake Inhibition Assay (mGlyT-1b). Particulars: [3H]-glycine uptake in Flp-in-CHO cells stably transfected with mGlyT1b cDNA; 20 min preincubation at 22° C. It counts as cell-based. As for the experimental part:
DMEM complete medium: Nutrient mixture F-12 (Gibco Life-technologies), fetal bovine serum (FBS) 5%, (Gibco life technologies), Penicillin/Streptomycin 1% (Gibco life technologies), Hygromycin 0.6 mg/ml (Gibco life technologies), Glutamine 1 mM Gibco life technologies)
Uptake buffer (UB): 150 mM NaCl, 10 mM Hepes-Tris, pH 7.4, 1 mM CaCl2, 2.5 mM KCl, 2.5 mM MgSO4, 10 mM (+) D-glucose.
Flp-in™-CHO (Invitrogen Cat no R758-07) cells stably transfected with mGlyT1b cDNA.
Glycine Uptake Inhibition Assay (mGlyT-1b)
On day 1 mammalian cells, (Flp-in™-CHO), transfected with mGlyT-1b cDNA, were plated at the density of 40,000 cells/well in complete F-12 medium, without hygromycin in 96-well culture plates. On day 2, the medium was aspirated and the cells were washed twice with uptake buffer (UB). The cells were then incubated for 20 min at 22° C. with either (i) no potential competitor, (ii) 10 mM non-radioactive glycine, (iii) a concentration of a potential inhibitor. A range of concentrations of the potential inhibitor was used to generate data for calculating the concentration of inhibitor resulting in 50% of the effect (e.g. IC50, the concentration of the competitor inhibiting glycine uptake of 50%). A solution was then immediately added containing [^3H]-glycine 60 nM (11-16 Ci/mmol) and 25 μM non-radioactive glycine. The plates were incubated with gentle shaking and the reaction was stopped by aspiration of the mixture and washing (three times) with ice-cold UB. The cells were lysed with scintillation liquid, shaken 3 hours and the radioactivity in the cells was counted using a scintillation counter.
A word on the IC50: it is the point on the concentration scale where inhibition reaches its midpoint. Lower therefore signals inhibition by little substance. In the case of `CCc1cc(C(F)(F)F)cc(C)c1C(=O)N[C@@H]1COCC[C@H]1N1CCCC1` (racemic) [Example 26, 2-Ethyl-6-methyl-N-((3SR,4RS)-4-pyrrolidin-1-yl-tetrahydro-pyran-3-yl)-4-trifluoro-methyl-benzamide], the midpoint of inhibition, the IC50, lay at 17.9 nM.

For the compound `COc1cc(C(F)(F)F)cc(C2CC2)c1C(=O)N[C@@H]1COCC[C@H]1N1CCCC1` (racemic) [Example 27, Cyclopropyl-6-methoxy-N-((3SR,4RS) 4 pyrrolidin-1-yl-tetrahydro-pyran-3-yl)-4-trifluoro-methyl-benzamide], the half-inhibitory concentration (IC50) worked out at 14.7 nM.

`COc1cc(C(F)(F)F)cc(SC)c1C(=O)N[C@@H]1COCC[C@H]1NC1(C)CCCC1` (racemic) [Example 28, 2-Methoxy-N-[(3SR,4RS)-4-(1-methyl-cyclo-pentylamino)-tetrahydro-pyran-3-yl]-6-methyl-sulfanyl-4-trifluoromethyl-benzamide] registered a half-maximal inhibitory concentration (IC50) of 144 nM.

`CC1(N[C@@H]2CCOC[C@H]2NC(=O)c2ccc(C(F)(F)F)cc2C2CC2)CCCC1` (racemic) [Example 29, 2-Cyclopropyl-N-[(3SR,4RS)-4-(1-methyl-cyclo-pentyl-amino)tetra-hydro-pyran-3-yl]-4-trifluoromethyl-benzamide] returned a 50% inhibitory concentration (IC50) of 235 nM.

The compound `CC(N[C@@H]1CCOC[C@H]1NC(=O)c1ccc(C(F)(F)F)cc1C1CC1)C1CC1` (mixture of isomers) [Example 30, 2-Cyclopropyl-N-[(3RS,4SR)-4-(1-cyclopropyl-ethylamino)-tetrahydro-pyran-3-yl]-4-trifluoro-methylbenzamide] came in with a half-inhibitory concentration (IC50) of 83.8 nM.

With `COc1cc(C(F)(F)F)cc(SC)c1C(=O)N[C@@H]1COCC[C@H]1NC(C)C1CC1` (mixture of isomers) [Example 31, N-[(3SR,4RS)-4-(1-Cyclopropyl-ethylamino)-tetrahydro-pyran-3-yl]-2-methoxy-6-methylsulfanyl-4-trifluoro-methyl-benzamide], the IC50 turned out to be 276 nM.

In turn, `O=C(N[C@@H]1COCC[C@H]1NC1CCC1)c1ccc(C(F)(F)F)cc1C1CC1` (racemic) [Example 32, N-((3SR,4RS)-4-Cyclobutylamino-tetrahydro-pyran-3-yl)-2-cyclo-propyl-4-trifluoromethyl-benzamide] showed a half-inhibitory concentration (IC50) of 119 nM.

As to `COc1cc(C(F)(F)F)cc(SC)c1C(=O)N[C@@H]1COCC[C@H]1NC1CCC(O)CC1` (mixture of isomers) [Example 33, N-[(3SR,4RS)-4-(4-Hydroxy-cyclohexylamino)-tetrahydro-pyran-3-yl]-2-methoxy-6-methylsulfanyl-4-trifluoromethyl-benzamide], the IC50 stood at 751 nM.

In turn, `O=C(N[C@@H]1COCC[C@H]1N1CCC(O)CC1)c1ccc(C(F)(F)F)cc1C1CC1` (racemic) [Example 36] registered a 50% inhibitory concentration (IC50) of 274 nM.

`COc1cc(C(F)(F)F)cc(SC)c1C(=O)N[C@@H]1CCOC[C@@H]1N1CCCC1` (relative stereo) [Example 63, cis-2-Methoxy-6-methylsulfanyl-N-(3-pyrrolidin-1-yl-tetrahydro-pyran-4-yl)-4-trifluoromethyl-benzamide] registered a half-inhibitory concentration (IC50) of 189 nM.

Consider `COc1cc(C(F)(F)F)cc(SC)c1C(=O)N[C@H]1COCC[C@@H]1N1CCCC1` (single isomer, unassigned) [Example 5, (+)-2-Methoxy-6-methylsulfanyl-N-(4-pyrrolidin-1-yl-tetrahydro-pyran-3-yl)-4-trifluoromethyl-benzamide], for which half-maximal inhibition (IC50) was put at 118 nM.

`COc1cc(C(F)(F)F)cc(SC)c1C(=O)N[C@H]1COCC[C@@H]1N1CCCC1` (single isomer, unassigned) [Example 6, (−)-2-Methoxy-6-methylsulfanyl-N-(4-pyrrolidin-1-yl-tetrahydro-pyran-3-yl)-4-trifluoromethyl-benzamide] yielded an IC50 of 28.4 nM.

On to `O=C(N[C@H]1COCC[C@@H]1NC1CCCC1)c1ccc(C(F)(F)F)cc1C1CC1` (stereo in doubt) [Example 43, (+)-N-(trans-4-Cyclopentylamino-tetrahydro-pyran-3-yl)-2-cyclopropyl-4-trifluoromethyl-benzamide], for which the IC50 was determined as 78.8 nM.

In the case of `COc1cc(C(F)(F)F)cc(SC)c1C(=O)N[C@@H]1COCC[C@H]1N1C[C@H]2C[C@H]2C1` [Example 34, N-[(3S,4R)-4-(3-Aza-bicyclo[3.1.0]hex-3-yl)-tetra-hydro-pyran-3-yl]-2-methoxy-6-methylsulfanyl-4-trifluoromethyl-benzamide], the half-maximal inhibitory concentration (IC50) turned out to be 110 nM.

On to `O=C(N[C@@H]1COCC[C@H]1N1C[C@H]2C[C@H]2C1)c1ccc(C(F)(F)F)cc1C1CC1` [Example 35, N-[(3S,4R)-4-(3-Aza-bicyclo[3.1.0]hex-3-yl)-tetra-hydro-pyran-3-yl]-2-cyclopropyl-4-trifluoromethyl-benzamide], for which the 50% inhibitory concentration (IC50) worked out at 26.5 nM.

Take `O=C(N[C@@H]1COCC[C@H]1N1CCCC1)c1ccc(C(F)(F)F)cc1C1CC1` [Example 37, (+)-2-Cyclopropyl-N-(4-pyrrolidin-1-yl-tetrahydro-pyran-3-yl)-4-trifluoromethyl-benzamide]: the concentration for half-maximal inhibition (IC50) was found to be 83.4 nM.

In the case of `O=C(N[C@H]1COCC[C@@H]1N1CCCC1)c1ccc(C(F)(F)F)cc1C1CC1` [Example 38, (−)-2-Cyclopropyl-N-(4-pyrrolidin-1-yl-tetrahydro-pyran-3-yl)-4-trifluoromethyl-benzamide], half-maximal inhibition (IC50) was put at 83.4 nM.

Regarding `Cc1cc(C(F)(F)F)cc(C(F)(F)F)c1C(=O)N[C@H]1COCC[C@@H]1N1CCCC1` [Example 39, (+)-2-Methyl-N-trans-(4-pyrrolidin-1-yl-tetrahydro-pyran-3-yl)-4,6-bis-trifluoro-methyl-benzamide], the IC50 was found to be 43.9 nM.

Compound `Cc1cc(C(F)(F)F)cc(C(F)(F)F)c1C(=O)N[C@@H]1COCC[C@H]1N1CCCC1` [Example 40, (−)-2-Methyl-N-trans-(4-pyrrolidin-1-yl-tetrahydro-pyran-3-yl)-4,6-bis-trifluoromethyl-benzamide] showed a concentration for half-maximal inhibition (IC50) of 95.5 nM.

For the compound `CSc1cc(C(F)(F)F)cc(C(F)(F)F)c1C(=O)N[C@H]1COCC[C@@H]1N1CCCC1` [Example 41, (+)-2-Methylsulfanyl-N-trans-(4-pyrrolidin-1-yl-tetrahydro-pyran-3-yl)-4,6-bis-trifluoromethyl-benzamide], the half-maximal inhibitory concentration (IC50) is 44.7 nM.

With `CSc1cc(C(F)(F)F)cc(C(F)(F)F)c1C(=O)N[C@@H]1COCC[C@H]1N1CCCC1` [Example 42, (−)-2-Methylsulfanyl-N-trans-(4-pyrrolidin-1-yl-tetrahydro-pyran-3-yl)-4,6-bis-trifluoromethyl-benzamide], the 50% inhibitory concentration (IC50) was 27 nM.

`O=C(N[C@@H]1COCC[C@H]1NC1CCCC1)c1ccc(C(F)(F)F)cc1C1CC1` [Example 44, (−)-N-(trans-4-Cyclopentylamino-tetrahydro-pyran-3-yl)-2-cyclopropyl-4-trifluoromethyl-benzamide] returned an IC50 of 299 nM.

As to `COc1cc(C(F)(F)F)cc(SC)c1C(=O)N[C@H]1COCC[C@@H]1NC1CCCC1` [Example 45, (+)-N-(4-Cyclopentylamino-tetrahydro-pyran-3-yl)-2-methoxy-6-methylsulfanyl-4-trifluoromethyl-benzamide], the IC50 is 111 nM.

`COc1cc(C(F)(F)F)cc(SC)c1C(=O)N[C@@H]1COCC[C@H]1NC1CCCC1` [Example 46, (−)-N-(4-Cyclopentylamino-tetrahydro-pyran-3-yl)-2-methoxy-6-methylsulfanyl-4-trifluoromethyl-benzamide] gave a concentration for half-maximal inhibition (IC50) of 158 nM.

As for `O=C(N[C@H]1COCC[C@@H]1N1CCCC1)c1c(C2CC2)cc(C(F)(F)F)cc1C(F)(F)F` [Example 47, (+)-2-Cyclopropyl-N-(4-pyrrolidin-1-yl-tetrahydro-pyran-3-yl)-4,6-bis-trifluoromethyl-benzamide], the 50% inhibitory concentration (IC50) amounted to 16 nM.

Consider `O=C(N[C@@H]1COCC[C@H]1N1CCCC1)c1c(C2CC2)cc(C(F)(F)F)cc1C(F)(F)F` [Example 48, (−)-2-Cyclopropyl-N-(4-pyrrolidin-1-yl-tetrahydro-pyran-3-yl)-4,6-bis-trifluoromethyl-benzamide], for which the IC50 amounted to 20 nM.

Turning to `O=C(N[C@@H]1COCC[C@H]1NC1CCCCC1)c1ccc(C(F)(F)F)cc1C1CC1` [Example 49], the midpoint of inhibition, the IC50, lay at 340 nM.

Take `O=C(N[C@H]1COCC[C@@H]1NC1CCCCC1)c1ccc(C(F)(F)F)cc1C1CC1` [Example 50]: the half-inhibitory concentration (IC50) was 57 nM.

`Cc1cc(C(F)(F)F)cc(C)c1C(=O)N[C@H]1COCC[C@@H]1N1CCCC1` [Example 51] came in with an IC50 of 25.3 nM.

`Cc1cc(C(F)(F)F)cc(C)c1C(=O)N[C@@H]1COCC[C@H]1N1CCCC1` [Example 52]: the IC50 worked out at 34.1 nM.

In the case of `COc1cc(C(F)(F)F)cc(C)c1C(=O)N[C@H]1COCC[C@@H]1N1CCCC1` [Example 53, (+)-2-Methoxy-6-methyl-N-(4-pyrrolidin-1-yl-tetrahydro-pyran-3-yl)-4-trifluoromethyl-benzamide], half-maximal inhibition (IC50) was put at 78.2 nM.

Consider `COc1cc(C(F)(F)F)cc(C)c1C(=O)N[C@@H]1COCC[C@H]1N1CCCC1` [Example 54], for which the IC50 was 33.8 nM.

In turn, `CCc1cc(C(F)(F)F)cc(OC)c1C(=O)N[C@H]1COCC[C@@H]1N1CCCC1` [Example 55] returned an IC50 of 48.3 nM.

Source of the values: patent US8524909B2, “Tetrahydro-pyran derivatives” (Hoffmann-La Roche Inc., priority 2010, dated 2013).
